# Test results reported in ChEMBL document CHEMBL1649408, “Synthesis and in vitro antimycobacterial activity of 8-OCH(3) ciprofloxacin methylene and ethylene isatin derivatives” (Eur J Med Chem, 2011).
# What was measured:
# [1] = system: Mycolicibacterium smegmatis; experiment: Antimycobacterial activity against Mycobacterium smegmatis CMCC 93202 after 72 hrs by serial double dilution technique; type: functional; details: CMCC 93202, 72 h
# [2] = system: Mycobacterium tuberculosis; experiment: microbe, parasite or virus in culture; type: functional; details: H37Rv ATCC 27294, 168 h
# Description: Antimycobacterial activity against Mycobacterium tuberculosis H37Rv ATCC 27294 after 7 days by serial double dilution technique
# [3] = Cytotoxicity against african green monkey Vero cells after 72 hrs by MTT assat; details: chlorocebus sabaeus
# [4] = system: Mycobacterium tuberculosis; experiment: Ratio of compound MIC to 8-OCH3 ciprofloxacin MIC for Mycobacterium tuberculosis H37Rv ATCC 27294; type: functional
SMILES,MIC [1],MIC [2],CC50 at 72 h ([3]; Vero cells),Ratio [4],CC50 at 72 h ([3]; vero)
COc1c(N2CCN(CCN3C(=O)/C(=N\NC(N)=S)c4cc(F)ccc43)CC2)c(F)cc2c(=O)c(C(=O)O)cn(C3CC3)c12,2.5 µM,1.02 µM,57 µM,,
CCO/N=C1\C(=O)N(CCN2CCN(c3c(F)cc4c(=O)c(C(=O)O)cn(C5CC5)c4c3OC)CC2)c2ccccc21,5.41 µM,,,,
COc1c(N2CCN(CN3C(=O)/C(=N\NC(N)=O)c4cc(F)ccc43)CC2)c(F)cc2c(=O)c(C(=O)O)cn(C3CC3)c12,2.62 µM,0.13 µM,168 µM,1.6,
COc1c(N2CCN(CN3C(=O)/C(=N\NC(N)=O)c4ccccc43)CC2)c(F)cc2c(=O)c(C(=O)O)cn(C3CC3)c12,1.35 µM,0.14 µM,266 µM,1.6,
CO/N=C1\C(=O)N(CCN2CCN(c3c(F)cc4c(=O)c(C(=O)O)cn(C5CC5)c4c3OC)CC2)c2ccc(F)cc21,2.68 µM,1.1 µM,12.8 µM,,
O=C(O)c1cn(C2CC2)c2cc(N3CCNCC3)c(F)cc2c1=O [CIPROFLOXACIN],2.36 µM,0.97 µM,,,601 µM
CO/N=C1\C(=O)N(CN2CCN(c3c(F)cc4c(=O)c(C(=O)O)cn(C5CC5)c4c3OC)CC2)c2ccccc21,5.68 µM,0.15 µM,76.5 µM,,
CCO/N=C1\C(=O)N(CN2CCN(c3c(F)cc4c(=O)c(C(=O)O)cn(C5CC5)c4c3OC)CC2)c2ccccc21,2.77 µM,0.14 µM,91.5 µM,,
COc1c(N2CCN(CCN3C(=O)/C(=N\NC(N)=S)c4ccccc43)CC2)c(F)cc2c(=O)c(C(=O)O)cn(C3CC3)c12,2.57 µM,1.05 µM,56.1 µM,,
CCO/N=C1\C(=O)N(CN2CCN(c3c(F)cc4c(=O)c(C(=O)O)cn(C5CC5)c4c3OC)CC2)c2ccc(F)cc21,2.68 µM,0.55 µM,85.8 µM,,
COc1c(N2CCN(CN3C(=O)C(=O)c4cc(F)ccc43)CC2)c(F)cc2c(=O)c(C(=O)O)cn(C3CC3)c12,2.9 µM,0.074 µM,70.6 µM,,
COc1c(N2CCN(CCN3C(=O)/C(=N\NC(N)=O)c4ccccc43)CC2)c(F)cc2c(=O)c(C(=O)O)cn(C3CC3)c12,5.28 µM,,,,
CO/N=C1\C(=O)N(CCN2CCN(c3c(F)cc4c(=O)c(C(=O)O)cn(C5CC5)c4c3OC)CC2)c2ccccc21,2.77 µM,1.14 µM,306 µM,,
CO/N=C1\C(=O)N(CN2CCN(c3c(F)cc4c(=O)c(C(=O)O)cn(C5CC5)c4c3OC)CC2)c2ccc(F)cc21,2.75 µM,0.14 µM,46.8 µM,1.6,
COc1c(N2CCN(CCN3C(=O)C(=O)c4cc(F)ccc43)CC2)c(F)cc2c(=O)c(C(=O)O)cn(C3CC3)c12,2.83 µM,,,,
COc1c(N2CCN(CCN3C(=O)/C(=N\NC(N)=O)c4cc(F)ccc43)CC2)c(F)cc2c(=O)c(C(=O)O)cn(C3CC3)c12,5.12 µM,,,,
COc1c(N2CCN(CCN3C(=O)C(=O)c4ccccc43)CC2)c(F)cc2c(=O)c(C(=O)O)cn(C3CC3)c12,5.84 µM,,,,
COc1c(N2CCN(CN3C(=O)/C(=N\O)c4cc(F)ccc43)CC2)c(F)cc2c(=O)c(C(=O)O)cn(C3CC3)c12,1.41 µM,0.14 µM,73.8 µM,,
COc1c(N2CCN(CN3C(=O)/C(=N\O)c4ccccc43)CC2)c(F)cc2c(=O)c(C(=O)O)cn(C3CC3)c12,2.92 µM,0.15 µM,74.4 µM,,
COc1c(N2CCN(CN3C(=O)C(=O)c4ccccc43)CC2)c(F)cc2c(=O)c(C(=O)O)cn(C3CC3)c12,24 µM,0.15 µM,70.8 µM,,
COc1c(N2CCN(CCN3C(=O)/C(=N\O)c4cc(F)ccc43)CC2)c(F)cc2c(=O)c(C(=O)O)cn(C3CC3)c12,22.1 µM,,,,
CO[C@H]1/C=C/O[C@@]2(C)Oc3c(C)c(O)c4c(O)c(c(/C=N/N5CCN(C)CC5)c(O)c4c3C2=O)NC(=O)/C(C)=C\C=C\[C@H](C)[C@H](O)[C@@H](C)[C@@H](O)[C@@H](C)[C@H](OC(C)=O)[C@@H]1C [RIFAMPIN],3.79 µM,0.19 µM,180 µM,,
COc1c(N2CCN(CN3C(=O)/C(=N\NC(N)=S)c4ccccc43)CC2)c(F)cc2c(=O)c(C(=O)O)cn(C3CC3)c12,2.63 µM,0.13 µM,154 µM,1.6,
NNC(=O)c1ccncc1 [ISONIAZID],5.69 µM,0.29 µM,,,
CCO/N=C1\C(=O)N(CCN2CCN(c3c(F)cc4c(=O)c(C(=O)O)cn(C5CC5)c4c3OC)CC2)c2ccc(F)cc21,1.31 µM,,,,
COc1c(N2CCNCC2)c(F)cc2c(=O)c(C(=O)O)cn(C3CC3)c12,0.54 µM,0.22 µM,242 µM,,
COc1c(N2CCN(CCN3C(=O)/C(=N\O)c4ccccc43)CC2)c(F)cc2c(=O)c(C(=O)O)cn(C3CC3)c12,11.4 µM,,,,
